What was measured:
[1] = Raina et al; cited from earlier work
[2] = Stability of ambrisentan liquid compositions; format: physicochemical; conditions: use of an autoclave
Description: The liquid compositions of the invention can be prepared using conventional techniques. Typically, the invention pertains to a process for preparing a liquid composition comprising the steps of (a) contacting the endothelin receptor antagonist, preferably ambrisentan, the buffer and the solvent and optionally the excipient and (b) stirring the solution to allow dissolution of the various ingredients, in particular the endothelin receptor antagonist or ambrisentan; and (c) subsequently sterilizing the resulting solution. Step (a) of the process of the invention may comprise of contacting all ingredients at once or it may comprise contacting the ingredients in sequential order, whereby the one or more steps can proceed at the same temperature or at different temperatures. For example, the ingredients that easily dissolve in the solvent at room temperature can be contacted at room temperature first, and subsequently the temperature can be raised, e.g. to 50° C., after which the lowly soluble compounds are added, e.g. the endothelin receptor antagonist such as ambrisentan. Step (b) may proceed until no solid particles can be discerned visually or through analytical techniques. The sterilization of step (c) of the process can be conducted using any sterilization technique known in the art such as filtration and autoclave sterilization. […]

healthy human subjects = assay: 24-hour intravenous ambrisentan infusion in healthy human subjects: urine output, water balance, free water clearance; format: in vivo
Method: A study was performed to determine whether lower concentrations of ambrisentan in blood are less likely to produce renal side effects as those seen with current concentrations achieved with the current commercial presentation of ambrisentan. In this study a liquid composition of ambrisentan at a concentration of 5 mg/mL was administered to 20 healthy human subjects at varying rates of administration in order to achieve different ambrisentan concentrations in blood and over a period of 24 hours. Target concentrations in the low dose group were 20 and 40 ng/mL (Group A) after 4 hours and 16 hours respectively, and 80 and 160 ng/mL in the high dose group (Group B) after 4 hours and 16 hours respectively. […] Steady state for each target concentration was maintained for at least 8 hours prior to increasing the concentration. Ten subjects were assigned to Group A and ten subjects to Group B. Pharmacokinetic and plasma ET-1 samples were collected and analysed at different timepoints for up to 72 hours. Urine was collected for 24 hours and in intervals from 0-2 hours, 2-4 hours, 4-8 hours, 8-12, hours, 12-18 hours and 18-24 hours.
All subjects received a 100 ml/hr infusion of 0.45% physiological solution for 24 hours and ambrisentan was administered in a 250-mL solution of 0.9% of physiological solution over a period of 24 hours. Subjects had free access to water and a normal diet. At a minimum, subjects received through intravenous infusion a total of 2650 mL of water and 223.3 mmol of sodium in the 24-hour period of drug administration.
The effect on urine was consistent throughout the different collection periods of the 24-hour infusion period. Patients in Group A maintained higher urinary output rates throughout the study as compared to Group B. In the Tables Below, Water Balance is the result of subtracting urine volume from intravenous liquid input.
The increase in urine formation (diuresis) was further characterised by determining the effect of ambrisentan on urine composition, specifically urine osmolality.

[3] = human studies, ambrisentan 5 and 10 mg/day; cited from earlier work
ETB receptor = molecular target: T1, ETB receptor (Homo sapiens, UniProt P24530); assay: Plasma endothelin-1 as measure of ETB receptor blockade in healthy human subjects; format: in vivo; conditions: Group B (high dose, target 80 and 160 ng/mL)
T1 construct: from tissue; host or cells: living healthy human subjects (in vivo study; plasma endothelin-1 measured)
T1 sequence (P24530 27-442): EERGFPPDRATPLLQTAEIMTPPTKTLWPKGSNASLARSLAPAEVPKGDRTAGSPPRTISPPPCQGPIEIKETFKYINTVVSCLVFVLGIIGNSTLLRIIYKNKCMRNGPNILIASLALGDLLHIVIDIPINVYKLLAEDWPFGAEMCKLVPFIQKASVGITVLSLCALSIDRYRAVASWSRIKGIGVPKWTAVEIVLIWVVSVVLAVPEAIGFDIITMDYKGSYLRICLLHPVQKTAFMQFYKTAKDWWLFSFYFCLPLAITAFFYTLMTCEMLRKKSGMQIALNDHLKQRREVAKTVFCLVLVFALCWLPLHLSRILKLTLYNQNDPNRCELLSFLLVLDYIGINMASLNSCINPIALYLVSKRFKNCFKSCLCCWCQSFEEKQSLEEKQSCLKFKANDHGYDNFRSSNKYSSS
Method: Finally, the effect of the different concentrations of ambrisentan on the ETB receptor blockade was determined by measuring plasma endothelin-1 at different timepoints of the study.

porcine kidneys = assay: Reperfusion of porcine kidneys following ischemic injury with endothelin-1 challenge; set-up: species or system Landrace cross female pigs; conditions: treated kidneys, ambrisentan 150 μg/l
Method: All experiments were undertaken in accordance with the Home Office animals (Scientific Procedures) Act 1986. Ten kidneys were retrieved from 5 Landrace cross female pigs weighing approximately 50 kg. Two pairs of kidneys underwent 20 minutes of warm ischaemic injury and were then flushed with 500 m1 of UW solution at 4° C. and stored on ice for 18 hours. After 18 hours cold storage, kidneys were prepared and flushed with 100 m1 of Ringer's solution 4° C. with or without liquid composition of Example 1 which is diluted to an ambrisentan concentration of 150 μg/l. They were then left at room temperature for 20 minutes. The remaining three pairs of kidneys were retrieved after 10 minutes of warm ischaemia and stored on ice for 6 hours. They were prepared and flushed as previously described then left at room temperature for 10 minutes before reperfusion.
Kidneys were perfused with 1 liter of diluted whole autologous heparinized blood at 38.0° C. for 6 hours to assess renal function and injury. 1000 μmol/l of creatinine (Sigma-Aldrich) was added to the circuit. In the treated kidneys the ambrisentan-containing liquid composition as described above (150 μg/l) was added to the reperfusion circuit 10 minutes before the start of reperfusion. In the control and treated kidneys after 2 h 50 min of reperfusion, endothelin-1 (Sigma-Aldrich) was added to the arterial line of reperfusion circuit to achieve a concentration of (20 pg/ml). A sample of the perfusate was taken from the renal vein during the post preservation flush. Perfusion data was recorded after 30 minutes of reperfusion then at each hour. Plasma and urine samples were taken pre-reperfusion, 30 minutes after reperfusion, then at hourly time points to measure renal function.

[4] = time 180 min (endothelin-1 20 pg/ml added after 2 h 50 min)
[5] = time 240 min (after endothelin-1)
[6] = time 300 min (after endothelin-1)
[7] = time 360 min (after endothelin-1)

COC(c1ccccc1)(c1ccccc1)[C@H](Oc1nc(C)cc(C)n1)C(=O)O [ambrisentan]
pharmacokinetic interactions with cyclosporine A and tacrolimus [1]: absence of pharmacokinetic interactions | stability on autoclave sterilization [2]: can decompose | Hourly Water Balance, Mean (healthy human subjects; Group A (low dose, target 20 and 40 ng/mL), collection period 0 H to 2 H): -74.58 mL/h | Hourly Water Balance, Mean (healthy human subjects; Group A (low dose, target 20 and 40 ng/mL), collection period 2 H to 4 H): -76.08 mL/h | Hourly Water Balance, Mean (healthy human subjects; Group A (low dose, target 20 and 40 ng/mL), collection period 4 H to 8 H): -1.08 mL/h | Hourly Water Balance, Mean (healthy human subjects; Group A (low dose, target 20 and 40 ng/mL), collection period 8 H to 12 H): -12.58 mL/h | Hourly Water Balance, Mean (healthy human subjects; Group A (low dose, target 20 and 40 ng/mL), collection period 12 H to 18 H): -13.75 mL/h | Hourly Water Balance, Mean (healthy human subjects; Group A (low dose, target 20 and 40 ng/mL), collection period 18 H to 24 H): -32.92 mL/h | Cumulative Water Balance, Mean (healthy human subjects; Group A (low dose, target 20 and 40 ng/mL), end of collection 2 H): -149.17 mL | Cumulative Water Balance, Mean (healthy human subjects; Group A (low dose, target 20 and 40 ng/mL), end of collection 4 H): -301.33 mL | Cumulative Water Balance, Mean (healthy human subjects; Group A (low dose, target 20 and 40 ng/mL), end of collection 8 H): -305.67 mL | Cumulative Water Balance, Mean (healthy human subjects; Group A (low dose, target 20 and 40 ng/mL), end of collection 12 H): -356.00 mL | Cumulative Water Balance, Mean (healthy human subjects; Group A (low dose, target 20 and 40 ng/mL), end of collection 18 H): -438.50 mL | Cumulative Water Balance, Mean (healthy human subjects; Group A (low dose, target 20 and 40 ng/mL), end of collection 24 H): -636.00 mL | Hourly Water Balance, Mean (healthy human subjects; Group B (high dose, target 80 and 160 ng/mL), collection period 0 H to 2 H): -6.33 mL/h | Hourly Water Balance, Mean (healthy human subjects; Group B (high dose, target 80 and 160 ng/mL), collection period 2 H to 4 H): 11.17 mL/h | Hourly Water Balance, Mean (healthy human subjects; Group B (high dose, target 80 and 160 ng/mL), collection period 4 H to 8 H): 27.17 mL/h | Hourly Water Balance, Mean (healthy human subjects; Group B (high dose, target 80 and 160 ng/mL), collection period 8 H to 12 H): 7.17 mL/h | Hourly Water Balance, Mean (healthy human subjects; Group B (high dose, target 80 and 160 ng/mL), collection period 12 H to 18 H): -10.08 mL/h | Hourly Water Balance, Mean (healthy human subjects; Group B (high dose, target 80 and 160 ng/mL), collection period 18 H to 24 H): 34.75 mL/h | Cumulative Water Balance, Mean (healthy human subjects; Group B (high dose, target 80 and 160 ng/mL), end of collection 2 H): -12.67 mL | Cumulative Water Balance, Mean (healthy human subjects; Group B (high dose, target 80 and 160 ng/mL), end of collection 4 H): 9.67 mL | Cumulative Water Balance, Mean (healthy human subjects; Group B (high dose, target 80 and 160 ng/mL), end of collection 8 H): 118.33 mL | Cumulative Water Balance, Mean (healthy human subjects; Group B (high dose, target 80 and 160 ng/mL), end of collection 12 H): 147.00 mL | Cumulative Water Balance, Mean (healthy human subjects; Group B (high dose, target 80 and 160 ng/mL), end of collection 18 H): 86.50 mL | Cumulative Water Balance, Mean (healthy human subjects; Group B (high dose, target 80 and 160 ng/mL), end of collection 24 H): 295.00 mL | fluid accumulation (healthy human subjects; ambrisentan concentrations above 100 ng/mL): significant accumulation of fluid through the inability to increase urinary output | renal effect, fluid retention (healthy human subjects; total ambrisentan lower than 100 ng/mL): have less of an effect on fluid retention | renal effect, fluid retention (healthy human subjects; total ambrisentan of about 100 ng/mL and higher): show an adverse renal effect by promoting fluid retention | plasma levels [3]: exceeding 350 ng/ml | increase in plasma endothelin-1 from baseline (ETB receptor): more than 50% | Oxygen consumption (porcine kidneys; 1 h of reperfusion): 63% | Oxygen consumption (porcine kidneys; 3 h of reperfusion): 64% | Oxygen consumption (porcine kidneys; 6 h of reperfusion): 55% | Renal blood flow (porcine kidneys; time 0 min): 45 ml/min/100 g | Renal resistance (porcine kidneys; time 0 min): 1.22 mmHg/min/100 g | Urine flow (porcine kidneys; time 0.5 h): 148 mL | Renal blood flow (porcine kidneys; time 30 min): 79 ml/min/100 g | Renal resistance (porcine kidneys; time 30 min): 0.58 mmHg/min/100 g | Urine flow (porcine kidneys; time 1 h): 124 mL | Renal blood flow (porcine kidneys; time 60 min): 84 ml/min/100 g | Renal resistance (porcine kidneys; time 60 min): 0.55 mmHg/min/100 g | Renal blood flow (porcine kidneys; time 120 min): 85 ml/min/100 g | Renal resistance (porcine kidneys; time 120 min): 0.56 mmHg/min/100 g | Urine flow (porcine kidneys; time 2 h): 116 mL | Urine flow (porcine kidneys; time 3 h): 80 mL | Renal blood flow (porcine kidneys; [4]): 85 ml/min/100 g | Renal resistance (porcine kidneys; [4]): 0.60 mmHg/min/100 g | Urine flow (porcine kidneys; time 4 h): 62 mL | Renal blood flow (porcine kidneys; [5]): 97 ml/min/100 g | Renal resistance (porcine kidneys; [5]): 0.56 mmHg/min/100 g | Urine flow (porcine kidneys; time 5 h): 44 mL | Renal blood flow (porcine kidneys; [6]): 93 ml/min/100 g | Renal resistance (porcine kidneys; [6]): 0.62 mmHg/min/100 g | Renal blood flow (porcine kidneys; [7]): 77 ml/min/100 g | Renal resistance (porcine kidneys; [7]): 0.78 mmHg/min/100 g
